Laboratory results reported in PMC10573946 (International Journal of Molecular Sciences, 2023).
Converted amounts (≈) assume the structure as drawn. “And” between values parts separate entries of the source, which are not always exact repeats. Equal entries are not always repeated. Where two headings read alike, the source gives them in different places.

Legend:
[1] = system: G. lamblia strain WB trophozoites; assay: In vitro giardicidal assay (trophozoite subculture, Probit analysis); assay type: cell-based, Giardia lamblia; conditions: for IC50: Giardia duodenalis
Experimental: G. lamblia strain WB was cultured in a TYI-S-33 medium (Manassas, VA, USA) supplemented with 10% calf serum and bovine bile. In vitro susceptibility tests were conducted using 4 × 10^4 trophozoites of G. lamblia. […] Additionally, a control group was incubated solely in a culture medium containing DMSO. Following the incubation period, the trophozoites were washed and subcultured in a fresh medium without drugs for an additional 48 h. Subsequently, the trophozoites count was performed, and the median inhibitory concentration (IC50) was calculated with a Probit analysis. All experimental procedures were replicated in triplicate.

G. lamblia (WB strain) = assay: In vivo antigiardial CD-1 mouse model; parameters: species or system CD-1 mice; conditions: for ED50: Giardia duodenalis, 48 h
Experimental: The in vivo antigiardial activity of the compounds was assessed following a previously described phenotypic drug screening method. Female CD-1 mice (16–24 g) were obtained from the animal house facility at Universidad Autónoma Metropolitana, Xochimilco, and were maintained under standard laboratory conditions. The experimental protocols were reviewed and approved by the Animal Care and Use Committee, ensuring compliance with the guidelines for the care and use of laboratory animals. The giardicidal effect of RetroABZ was evaluated on mice infected with trophozoites of the G. lamblia WB strain. Mice were orally treated with a mebendazole solution (10 mg/mouse/day) for 3 consecutive days to ensure their freedom from any potential protozoan infections. One week after treatment, three consecutive fecal examinations were conducted to confirm the absence of protozoan infections before proceeding with experimental infection. Mice (n = 6 per group) were intragastrically infected with 1 × 10^6 trophozoites in 300 µL of a TYI-S-33 medium (Manassas, VA, USA) using a silastic tube ([…]. outside diameter) attached to a 1 mL syringe. Six days after infection, mice were treated intragastrically with 300 µL of RetroABZ dissolved in 1 mL of a 2% DMSO solution in water. […] Five single doses (0.018, 0.037, 0.075, 0.15, and 0.3 mg/kg) of both compounds were evaluated. Forty-eight hours after the treatment (8 days post-infection), the mice were euthanized, and the entire small intestine was removed, opened longitudinally, and placed in 10 mL of a 10% PAF fixer for a minimum of 2 h. Tubes were then vortexed to ensure complete detachment of the trophozoites, and the number of organisms present was calculated for both the treated and control groups.
A data analysis was performed utilizing a Probit analysis. The percentage of surviving trophozoites was calculated by comparing their growth with the control group. To determine the dose required to kill 50% of the trophozoites (ED50), along with the 95% confidence limits, a Probit plot against the logarithm of the drug concentration was generated.

[2] = Thermodynamic aqueous solubility (shake-flask, HPLC); assay type: physicochemical; conditions: for solubility at 48 h: 37 °C, thermodynamic from solid, water
Experimental: The aqueous solubility of RetroABZ was assessed using the shake-flask saturation method, as described in previous studies. […] Subsequently, the solution was filtered through a 0.2 μm filter (Phenex-NY 4mm, Torrance, CA, USA). The aqueous solubility of the compound was then determined using an HPLC method. Experimentally, the compound RetroABZ was analyzed with high-performance liquid chromatography (HPLC PerkinElmer 200, Waltham, Massachusetts). The HPLC analysis was performed using an ultraviolet detector (UV/VIS 200). The analite was monitored at a wavelength of 254 nm. Chromatographic separation was performed using a Phenomenex Luna C18 (4.6 × 150 mm, 5 µm, Torrance, CA, USA). The mobile phase utilized in the study consisted of a mixture of methanol and water in a ratio of 60:40 (v/v). The elution from the stationary phase was conducted at a constant flow rate of 1 mL/min (isocratic mode). Aliquots of 20 µL were injected into the HPLC system and the total run time for each injection was set at 10 min; the analysis was performed for triplicate. […] Chromatographic separation was performed using a Phenomenex Luna C18 (4.6 × 150 mm, 5 µm). The mobile phase utilized was a mixture of methanol and a 0.05 M phosphate buffer (pH 5.7), 70:30 (v:v). The flow rate was kept constant at 1 mL/min. To prepare the saturated solution of the compound (1 mg/mL), it was stirred for 48 h at a constant temperature of 37 ± 2 °C. Subsequently, the solution was filtered through a 0.2 µm filter (Phenex-NY 4 mm). Aliquots of 20 µL were injected into the HPLC system, and the analysis was performed for triplicate.

[3] = system: Huh-7 (human hepatocellular carcinoma cell line); parameters: method as in PMID 35036753; conditions: albendazole, reported value; cited from earlier work
[4] = system: HaCaT (immortalized human keratinocytes); parameters: method as in PMID 35036753; conditions: albendazole, reported value; cited from earlier work
[5] = cited from earlier work
[6] = cited from earlier work; remark: listed apart in the source
[7] = In vitro cytotoxic assay (CellTiter 96 AQueous One) in Huh-7; assay type: cell-based, human; conditions: human, Huh-7 cells, 48 h
Experimental: (§1) The cytotoxic assay of RetroABZ was carried out in Huh-7 (human hepatocellular carcinoma cell line) cells acquired from ATCC (American Type Culture Collection, Manassas, VA, USA). We also included an immortalized human epidermal keratinocyte line (HaCaT) as a control of non-cancerous cells. The cells were cultured in a DMEM medium (Invitrogen, Thermo Fisher Scientific, Inc., Waltham, MA, USA), supplemented with 10% fetal bovine serum (SFB, Invitrogen) and 2 mM glutamine. All cultures were maintained under standard culture conditions (37 °C and 5% CO2). For the cytotoxic assessment in a 96-well plate, 5000 cells per well were planted. […] The cellular viability was next calculated utilizing the CellTiter 96® AQueous One Solution Cell Proliferation Assay kit (Promega, Madison, WI, USA), following the manufacturer’s instructions. The experiments were carried out in triplicate in separate experiments. The Prism 8.0 statistical tool (Graphpad Software Inc., La Jolla, CA, USA) was used to examine the data, and a regression analysis was used to obtain the IC50.

[8] = system: Huh-7 (human hepatocellular carcinoma cell line); assay: as above; assay type: cell-based
Experimental: as §1

[9] = In vitro cytotoxic assay (CellTiter 96 AQueous One) in HaCaT; assay type: cell-based, human; conditions: human, HaCaT cells (immortalized keratinocytes)
Experimental: as §1

[10] = system: HaCaT (immortalized human keratinocytes); assay: as above; assay type: cell-based; conditions: 48 h
Experimental: as §1

[11] = infected CD-1 mice, single intragastric dose, 48 h after treatment, read-out: ED50

Structure (SMILES): CCCSc1ccc2nc(NC(=O)OC)[nH]c2c1 [Albendazole]
- IC50 ([1]; 48 h, read-out: IC50 G. lamblia, trophozoites, 48 h incubation at 37 °C then 48 h subculture): 0.196 ± 0.011 µM
- ED50 (G. lamblia (WB strain)): 0.055 mg/kg and 0.207 µmol/kg
- solubility at 48 h ([2]; 37 ± 2 °C, 48 h, read-out: Solubility in water): 10.6 ± 0.7 µg/mL (≈ 39.8 µM)
- CC50 [3]: 79.7 ± 1 µM
- CC50 [4]: 118.2 ± 1 µM
- documented solubility ([5]; 25 °C): 0.02 µg/mL
- reported solubility [5]: 0.2 µg/mL
- oral bioavailability [6]: 5%
- oral bioavailability ([6]; stated in discussion, no reference given): less than 5%

Structure (SMILES): Cc1ncc([N+](=O)[O-])n1CCO [Metronidazole, reference compound]
- ED50 (G. lamblia (WB strain); [11]): 0.194 mg/kg and 1.13 µmol/kg

Structure (SMILES): CCCSc1nc2cc(NC(=O)OC)ccc2[nH]1 [RetroABZ, Methyl (2-(propylthio)-1H-benzo[d]imidazol-5-yl)carbamate]
- IC50 ([1]; trophozoites, 48 h incubation at 37 °C then 48 h subculture, read-out: IC50 G. lamblia): 0.083 ± 0.013 µM
- in vitro giardicidal activity relative to albendazole ([1]; ratio of IC50 values): 2.4 times
- CC50 at 48 h [7]: > 300 µM
- CC50 ([8]; 48 h): 313 ± 22.2 µM
- Selectivity Index CC50/IC50 Huh-7 ([8]; CC50 Huh-7 / IC50 G. lamblia): 3768
- CC50 at 48 h [9]: > 300 µM
- CC50 [10]: 588 ± 18.5 µM
- ED50 (G. lamblia (WB strain); [11]): 0.0188 µmol/kg and 0.005 mg/kg
- in vivo giardicidal activity relative to albendazole (G. lamblia (WB strain); ratio of ED50 values): 11 fold
- in vivo potency relative to metronidazole (G. lamblia (WB strain); ratio of ED50 values): 39 fold
- solubility at 48 h ([2]; Solubility in water): 246 µg/mL (≈ 926 µM)
- Solubility in water ([2]; 48 h): 245.74 ± 4.07 µg/mL (≈ 926 µM)
